In patent publication US9428483B2, “Prodrug of fluorine-containing amino acid” (TAISHO PHARMACEUTICAL CO., LTD., priority 2012, dated 2016):

How the values were obtained:
[1] = Test 1: Solution Stability Test; format: physicochemical; settings: 37° C., one hour, about 50 μg/mL; for Compound's percent residue (%) pH 6.5: 20 mM phosphate buffer (pH 6.5); for Compound's percent residue (%) pH 1.2: hydrochloric acid solution (pH 1.2)
Experimental: Inventive Compounds (I) were tested for their stability in solutions simulating the gastric and small intestine's digestive fluids identified below.
The percent residues of Inventive Compounds (I) in a hydrochloric acid solution (pH 1.2) and 20 mM phosphate buffer (pH 6.5) were measured in accordance with the following test method.
A test compound was dissolved in a hydrochloric acid solution (pH 1.2) containing hydrochloric acid and sodium chloride or a 20 mM phosphate buffer (pH 6.5) containing disodium hydrogenphosphate, sodium dihydrogenphosphate and sodium chloride to prepare a solution with a concentration of about 50 μg/mL (near the solubility if undissolved). The solution was incubated at 37° C. for an hour and the compound's concentration before and after the incubation was quantified by high-performance liquid chromatography to calculate the percent residue of the compound.

[2] = Test 4: percent generation of Compound (IV) in human small intestine S9; format: in vitro ADME; settings: 3 μM, 1 mg protein/mL, 37° C. x 1 hr
Experimental: A test to determine the percent generation of Compound (IV) in human intestine S9 was conducted for Inventive Compounds (I) in accordance with the following method.
Inventive Compounds were incubated (37° C.×1 hr) in a 0.1 M phosphate buffer (pH 7.4) together with a human intestine S9 fraction (Xenotech, LLC/CP710571/Lot, 710571) in the presence of Mg^2+ (5 mM), Ca^2+ (5 mM) and Zn^2+ (0.1 mM). The final concentrations of each Inventive Compound and the small intestine S9 protein were adjusted to 3 μM and 1 mg protein/mL, respectively. To the incubated reaction mixture, 3 volumes of DMSO was added, followed by stirring and centrifugation at 3000 rpm (4° C.×10 min). The resulting supernatant was subjected to analysis by a liquid chromatography-tandem mass spectrometry (LC-MS/MS) system. The lower quantitation limit was 0.3 μM for both Inventive Compounds (I) and Compound (IV).
The LC-MS/MS system used in the measurement was equipped with Waters XBridge Amide (3.5 μm, 50 mm×4.6 mm I.D.), Waters Atlantis T3 (3 μm, 50 mm×4.6 mm I.D.), or Shimadzu Shim-pack XR-ODS (2.2 μm, 30 mm×3.0 mm I.D.) as a separation column. The mobile phase was a 0.1% formic acid/acetonitrile solution or a 0.1% formic acid/methanol solution (flow rate: 0.7-1.3 mL/min) and the analyte was eluted in a linear gradient mode. MS/MS detection of Inventive Compounds (I) and Compound (IV) was performed using an API4000 or Triple quad 5500 system with TurbolonSpray interface (both being products of AB SCIEX) in either a positive or negative ion detection mode. The percent generation of Compound (IV) in human small intestine S9 is shown in the following Table 6 with respect to Inventive Compounds.

Compound's percent residue (%) pH 6.5 [1]	Compound's percent residue (%) pH 1.2 [1]	Percent generation (%) of Compound IV in human small intestine S9 [2]	Compound
93%	93%	–	N[C@]1(C(=O)O)[C@H]2[C@@H](C[C@@H]1F)[C@@H]2C(=O)OCOC(=O)OC12CC3CC(CC(C3)C1)C2 [Ex. A-13, (1S,2S,3S,5R,6S)-6-(((((adamantan-1-yloxy)carbonyl)oxy)methoxy)carbonyl)-2-amino-3-fluorobicyclo[3.1.0]hexane-2-carboxylic acid]
101%	101%	<10%	CC[C@H](C)[C@H](N)C(=O)N[C@]1(C(=O)O)[C@H]2[C@@H](C[C@@H]1F)[C@@H]2C(=O)O.Cl [Ex. D-6, (1S,2S,3S,5R,6S)-2-((2S,3S)-2-amino-3-methylpentanamide)-3-fluorobicyclo[3.1.0]hexane-2,6-dicarboxylic acid hydrochloride]
–	–	<10%	CSCC[C@@H](N)C(=O)N[C@]1(C(=O)O)[C@H]2[C@@H](C[C@@H]1F)[C@@H]2C(=O)O.Cl [Ex. D-11, (1S,2S,3S,5R,6S)-2-((R)-2-amino-4-(methylthio)butanamide)-3-fluorobicyclo[3.1.0]hexane-2,6-dicarboxylic acid hydrochloride]
100%	100%	–	CC(OC(=O)O[C@@H]1C[C@H](C)CC[C@H]1C(C)C)OC(=O)[C@H]1[C@@H]2C[C@H](F)[C@@](N)(C(=O)O)[C@@H]21 (stereo partly drawn) [Ex. A-3, (1S,2S,3S,5R,6S)-2-amino-3-fluoro-6-((1-(((((1R,2S,5R)-2-isopropyl-5-methylcyclohexyl)oxy)carbonyl)oxy)ethoxy)carbonyl)bicyclo[3.1.0]hexane-2-carboxylic acid]
97%	95%	–	CC(OC(=O)OC12CC3CC(CC(C3)C1)C2)OC(=O)[C@H]1[C@@H]2C[C@H](F)[C@@](N)(C(=O)O)[C@@H]21 (stereo partly drawn) [Ex. A-14, (1S,2S,3S,5R,6S)-6-((1-(((adamantan-1-yloxy)carbonyl)oxy)ethoxy)carbonyl)-2-amino-3-fluorobicyclo[3.1.0]hexane-2-carboxylic acid]
99%	100%	–	N[C@]1(C(=O)O)[C@H]2[C@@H](C[C@@H]1F)[C@@H]2C(=O)OCOC(=O)C12CC3CC(CC(C3)C1)C2 [Ex. A-1, (1S,2S,3S,5R,6S)-6-(((adamantane-1-carbonyl)oxy)methoxy)carbonyl-2-amino-3-fluorobicyclo[3.1.0]hexane-2-carboxylic acid]
97%	100%	–	CC(OC(=O)OC1CCCCC1)OC(=O)[C@H]1[C@@H]2C[C@H](F)[C@@](N)(C(=O)O)[C@@H]21 (stereo partly drawn) [Ex. A-10, (1S,2S,3S,5R,6S)-2-amino-6-((1-(((cyclohexyloxy)carbonyl)oxy)ethoxy)carbonyl)-3-fluorobicyclo[3.1.0]hexane-2-carboxylic acid]
–	–	<10%	Cl.N[C@@H](Cc1ccccc1)C(=O)N[C@]1(C(=O)O)[C@H]2[C@@H](C[C@@H]1F)[C@@H]2C(=O)O [Ex. D-9, (1S,2S,3S,5R,6S)-2-((S)-2-amino-3-phenylpropanamide)-3-fluorobicyclo[3.1.0]hexane-2,6-dicarboxylic acid hydrochloride]
101%	101%	–	CC(OC(=O)[C@H]1[C@@H]2C[C@H](F)[C@@](N)(C(=O)O)[C@@H]21)OC(=O)C12CC3CC(CC(C3)C1)C2 (stereo partly drawn) [Ex. A-2, (1S,2S,3S,5R,6S)-6-(1-((adamantane-1-carbonyl)oxy)ethoxy)carbonyl-2-amino-3-fluorobicyclo[3.1.0]hexane-2-carboxylic acid]
–	–	25.9%	Cl.NCCCC[C@H](N)C(=O)N[C@]1(C(=O)O)[C@H]2[C@@H](C[C@@H]1F)[C@@H]2C(=O)O [Ex. D-5, (1S,2S,3S,5R,6S)-2-((S)-2,6-diaminohexanamide)-3-fluorobicyclo[3.1.0]hexane-2,6-dicarboxylic acid hydrochloride]
102%	99%	11.7%	CC(C)C[C@H](N)C(=O)N[C@]1(C(=O)O)[C@H]2[C@@H](C[C@@H]1F)[C@@H]2C(=O)O.Cl [Ex. D-7, (1S,2S,3S,5R,6S)-2-((S)-2-amino-4-methylpentanamide)-3-fluorobicyclo[3.1.0]hexane-2,6-dicarboxylic acid hydrochloride]
102%	100%	<10%	Cl.NCC(=O)N[C@]1(C(=O)O)[C@H]2[C@@H](C[C@@H]1F)[C@@H]2C(=O)O [Ex. D-3, (1S,2S,3S,5R,6S)-2-(2-aminoacetamide)-3-fluorobicyclo[3.1.0]hexane-2,6-dicarboxylic acid hydrochloride]
99%	100%	–	CC(C)(C)C(=O)OCOC(=O)[C@H]1[C@@H]2C[C@H](F)[C@@](N)(C(=O)O)[C@@H]21 [Ex. A-7, (1S,2S,3S,5R,6S)-2-amino-3-fluoro-6-(((pivaloyloxy)methoxy)carbonyl)bicyclo[3.1.0]hexane-2-carboxylic acid]
98%	99%	–	CC(C)[C@@H]1CC[C@@H](C)C[C@H]1OC(=O)OCOC(=O)[C@H]1[C@@H]2C[C@H](F)[C@@](N)(C(=O)O)[C@@H]21 [Ex. A-4, (1S,2S,3S,5R,6S)-2-amino-3-fluoro-6-(((((((1R,2S,5R)-2-isopropyl-5-methylcyclohexyl)oxy)carbonyl)oxy)methoxy)carbonyl)bicyclo[3.1.0]hexane-2-carboxylic acid]
98%	99%	–	Cc1oc(=O)oc1COC(=O)[C@H]1[C@@H]2C[C@H](F)[C@@](N)(C(=O)O)[C@@H]21 [Ex. A-16, (1S,2S,3S,5R,6S)-2-amino-3-fluoro-6-(((5-methyl-2-oxo-1,3-dioxol-4-yl)methoxy)carbonyl)bicyclo[3.1.0]hexane-2-carboxylic acid]
101%	102%	–	CC(C)OC(=O)OC(C)OC(=O)[C@H]1[C@@H]2C[C@H](F)[C@@](N)(C(=O)O)[C@@H]21.O=C(O)C(F)(F)F (stereo partly drawn) [Ex. A-15, (1S,2S,3S,5R,6S)-2-amino-3-fluoro-6-((1-((isopropyloxycarbonyl)oxy)ethoxy)carbonyl)bicyclo[3.1.0]hexane-2-carboxylic acid trifluoroacetate]
101%	100%	–	CC(C)COC(C)OC(=O)[C@H]1[C@@H]2C[C@H](F)[C@@](N)(C(=O)O)[C@@H]21.Cl (stereo partly drawn) [Ex. A-8, (1S,2S,3S,5R,6S)-2-amino-3-fluoro-6-((1-(isobutyloxy)ethoxy)carbonyl)bicyclo[3.1.0]hexane-2-carboxylic acid hydrochloride]
97%	99%	–	Cl.N[C@]1(C(=O)O)[C@H]2[C@@H](C[C@@H]1F)[C@@H]2C(=O)OC1OC(=O)c2ccccc21 (stereo partly drawn) [Ex. A-17, (1S,2S,3S,5R,6S)-2-amino-3-fluorobicyclo[3.1.0]hexane-2,6-dicarboxylic acid 6-(3-phthalidyl) ester hydrochloride]

Compound	Compound's percent residue (%) pH 6.5 [1]	Compound's percent residue (%) pH 1.2 [1]	Percent generation (%) of Compound IV in human small intestine S9 [2]
C[C@H](N)C(=O)N[C@@H](C)C(=O)N[C@]1(C(=O)O)[C@H]2[C@@H](C[C@@H]1F)[C@@H]2C(=O)O.Cl [Ex. D-8, (1S,2S,3S,5R,6S)-2-((S)-2-((S)-2-aminopropanamide)propanamide)-3-fluorobicyclo[3.1.0]hexane-2,6-dicarboxylic acid hydrochloride]	–	–	11.7%
Cl.O=C(O)[C@H]1[C@@H]2C[C@H](F)[C@@](NC(=O)[C@@H]3CCCN3)(C(=O)O)[C@@H]21 [Ex. D-10, (1S,2S,3S,5R,6S)-3-fluoro-2-((S)-pyrrolidine-2-(carboxyamide))bicyclo[3.1.0]hexane-2,6-dicarboxylic acid hydrochloride]	–	–	<10%
